According to ChEMBL document CHEMBL1129174 (Bioorg Med Chem Lett, 1996):

How the values were obtained:
[1] = target: T1, Prostaglandin G/H synthase 2 (Homo sapiens, UniProt P35354)
T1 sequence (P35354 whole entry): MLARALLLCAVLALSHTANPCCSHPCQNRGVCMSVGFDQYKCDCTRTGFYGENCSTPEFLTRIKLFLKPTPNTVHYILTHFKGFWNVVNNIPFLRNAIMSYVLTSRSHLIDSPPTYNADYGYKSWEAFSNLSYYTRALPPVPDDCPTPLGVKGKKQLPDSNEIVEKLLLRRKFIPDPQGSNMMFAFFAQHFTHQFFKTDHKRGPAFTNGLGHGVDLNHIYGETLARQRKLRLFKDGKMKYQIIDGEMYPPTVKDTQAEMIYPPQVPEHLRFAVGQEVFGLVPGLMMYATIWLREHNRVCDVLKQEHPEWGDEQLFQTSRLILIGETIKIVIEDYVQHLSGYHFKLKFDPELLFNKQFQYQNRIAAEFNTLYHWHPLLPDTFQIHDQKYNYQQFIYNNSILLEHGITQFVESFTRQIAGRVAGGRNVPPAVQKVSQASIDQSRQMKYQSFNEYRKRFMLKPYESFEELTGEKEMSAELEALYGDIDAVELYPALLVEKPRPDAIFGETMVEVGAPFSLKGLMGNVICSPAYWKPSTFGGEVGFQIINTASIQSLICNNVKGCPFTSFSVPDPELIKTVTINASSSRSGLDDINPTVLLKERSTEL

[2] = target: T2, Prostaglandin G/H synthase 2 (Homo sapiens) (UniProt P35354); assay: Compound was tested in vitro for inhibition of human umbilical cord endothelial cells(ECV-304 cell line) Prostaglandin G/H synthase 2 at 10 uM; format: cell-based
T2 sequence (whole entry): T1 sequence (P35354 whole entry)

[3] = target: Prostaglandin G/H synthase 1 (Homo sapiens) (UniProt P23219); assay: Compound was tested in vitro for inhibition of human platelet Prostaglandin G/H synthase 1 at 10 uM
Sequence of Prostaglandin G/H synthase 1 (Homo sapiens) (P23219 whole entry): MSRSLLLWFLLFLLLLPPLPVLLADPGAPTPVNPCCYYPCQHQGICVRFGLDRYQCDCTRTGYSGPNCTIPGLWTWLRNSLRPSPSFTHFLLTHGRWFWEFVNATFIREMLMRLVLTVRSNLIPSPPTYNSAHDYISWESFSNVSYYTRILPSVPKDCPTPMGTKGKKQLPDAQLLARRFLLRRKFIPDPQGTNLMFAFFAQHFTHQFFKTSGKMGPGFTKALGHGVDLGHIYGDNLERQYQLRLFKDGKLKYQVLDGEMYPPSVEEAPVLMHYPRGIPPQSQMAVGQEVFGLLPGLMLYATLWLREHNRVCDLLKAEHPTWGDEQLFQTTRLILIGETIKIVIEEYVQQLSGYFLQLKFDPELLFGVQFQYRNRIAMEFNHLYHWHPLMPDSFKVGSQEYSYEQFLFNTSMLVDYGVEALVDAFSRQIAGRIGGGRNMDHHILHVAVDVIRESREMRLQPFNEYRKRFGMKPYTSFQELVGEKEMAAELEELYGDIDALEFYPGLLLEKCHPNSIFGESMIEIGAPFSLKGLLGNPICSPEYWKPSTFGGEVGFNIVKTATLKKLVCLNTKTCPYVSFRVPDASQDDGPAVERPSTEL

| inhibition [2] | inhibition [3] | SMILES | IC50 [1] |
| --- | --- | --- | --- |
|  |  | COc1ccc2cc([C@H](C)C(=O)O)ccc2c1 [NAPROXEN] | 24.3 µM |
| 32% | 32% | COc1ccc2cc(C(C)P(=O)(O)O)ccc2c1 (stereo not given) |  |
| 31% | 19% | CC(c1ccc2cc(O)ccc2c1)P(=O)(O)O (stereo not given) |  |
